This is an account of results in patent US7759337B2, “Phthalazine compounds and methods of use” (Amgen Inc., priority 2005, dated 2010).

SMILES strings stand for the structures. Where only a bound is given, the exact number is not on record here.

This experiment concerns production of TNF by monocytes activated with bacterial lipopolysaccharide (LPS). The experiment is described as follows: Lipopolysaccharide-activated monocyte TNF production assay. The format is cell-based. The settings on record: Homo sapiens; whole blood monocyte assay (LPS induced TNF release). In short, it runs like this:
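Adherent human PBMC-derived monocytes preincubated 60 min with nine two-fold compound dilutions, then stimulated with E. coli K532 LPS (30 ng/mL in the added medium) for 4 h at 37 °C. Supernatant TNF measured by sandwich ELISA; IC50 is the compound concentration halving TNF production, from second-order polynomial fits.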
`Cc1ccc(C(=O)NC2CC2)cc1-c1ccc2c(-c3ccc(-c4ccc(Cl)cc4)cc3)nncc2c1` [Example 208, 3-[1-(4′-chloro-1,1′-biphenyl-4-yl)phthalazin-6-yl]-N-cyclopropyl-4-methylbenzamide]: the IC50 – broadly, the concentration needed to halve the response being measured – was ≤ 5 µM.
For `Cc1ccc(C(=O)NC2CC2)cc1-c1ccc2c(-c3ccccc3)nncc2c1` [Example 250, N-cyclopropyl-4-methyl-3-(1-phenylphthalazin-6-yl)benzamide], the IC50 was ≤ 5 µM.
As for `CNc1noc2c(-c3ccc4c(OC(C)C)nncc4c3)c(C)ccc12` [Example 331, N,6-dimethyl-7-(1-((1-methylethyl)oxy)-6-phthalazinyl)-1,2-benzisoxazol-3-amine], the IC50 was ≤ 5 µM.
With `CCN(CC)CCNc1nncc2cc(-c3cc(C(=O)NC4CC4)ccc3C)ccc12` [Example 186, N-cyclopropyl-3-(1-{[2-(diethylamino)ethyl]amino}phthalazin-6-yl)-4-methylbenzamide] the figure was ≤ 5 µM; with `Cc1ccc(C(=O)NC2CC2)cc1-c1ccc2c(N3CCNC[C@H]3C)nncc2c1` [Example 110, N-cyclopropyl-4-methyl-3-{1-[(2R)-2-methylpiperazin-1-yl]phthalazin-6-yl}benzamide], ≤ 5 µM.
For the compound `Cc1ccc(C(=O)NC2CC2)cc1-c1ccc2c(N3CCN(c4c(C)cccc4C)CC3)nncc2c1` [Example 162, N-cyclopropyl-3-{1-[4-(2,6-dimethylphenyl)piperazin-1-yl]phthalazin-6-yl}-4-methylbenzamide], the 50% inhibitory concentration (IC50) is ≤ 5 µM.
Next, `Cc1ccc(C(N)=O)cc1-c1ccc2c(-c3cncnc3)nncc2c1` [Example 215, 4-methyl-3-(1-pyrimidin-5-ylphthalazin-6-yl)benzamide]: ≤ 5 µM; `Cc1ccccc1-c1nncc2cc(Oc3cccc(Cl)c3)ccc12` [Example 338, 6-(3-chlorophenoxy)-1-(2-methylphenyl)phthalazine]: ≤ 5 µM; `Cc1ccc(C(N)=O)cc1-c1ccc2c(-c3ccc([S+](C)[O-])cc3C)nncc2c1` (stereo not drawn) [Example 243, 4-methyl-3-{1-[2-methyl-4-(methylsulfinyl)phenyl]phthalazin-6-yl}benzamide]: ≤ 5 µM.
For the compound `Cc1ccc(C(N)=O)cc1-c1ccc2c(-c3cc(F)ncc3C)nncc2c1` [Example 259, 3-[1-(2-fluoro-5-methylpyridin-4-yl)phthalazin-6-yl]-4-methylbenzamide], the IC50 is ≤ 5 µM.
In the case of `CC[C@@H]1CCCCN1c1nncc2cc(-c3cc(C(=O)NC4CC4)ccc3C)ccc12` [Example 130, N-cyclopropyl-3-{1-[(2R)-2-ethylpiperidin-1-yl]phthalazin-6-yl}-4-methylbenzamide], the half-inhibitory concentration (IC50) was ≤ 5 µM.
In the case of `Cc1ccc(C(=O)NC2CC2)cc1-c1ccc2c(N3CC[C@H]4CCCC[C@H]4C3)nncc2c1` [Example 136, 3-{1-[(4aR,8aR)-octahydroisoquinolin-2(1H)-yl]phthalazin-6-yl}-N-cyclopropyl-4-methylbenzamide], the IC50 is ≤ 5 µM.
Regarding `Cc1ccc(C(N)=O)cc1-c1ccc2c(N(C)C(C)C)nncc2c1` [Example 292, 3-{1-[isopropyl(methyl)amino]phthalazin-6-yl}-4-methylbenzamide], the half-maximal inhibitory concentration (IC50) was ≤ 5 µM.
As for `Cc1ccc(C(=O)NC2CC2)cc1-c1ccc2c(N3C[C@@H]4C[C@H]3CN4C(C)C)nncc2c1` [Example 144, N-cyclopropyl-3-{1-[(1S,4S)-5-isopropyl-2,5-diazabicyclo[2.2.1]hept-2-yl]phthalazin-6-yl}-4-methylbenzamide], the IC50 was ≤ 5 µM.
Take `Cc1ccc(S(=O)(=O)NC2CC2)cc1-c1ccc2c(NC(C)C)nncc2c1` [Example 359, N-cyclopropyl-3-[1-(isopropylamino)phthalazin-6-yl]-4-methylbenzenesulfonamide]: the IC50 was ≤ 5 µM.
In the case of `COc1ccc(-c2nncc3cc(-c4cc(C(N)=O)ccc4C)ccc23)c(C)c1` [Example 202, 3-[1-(4-methoxy-2-methylphenyl)phthalazin-6-yl]-4-methylbenzamide], the concentration for half-maximal inhibition (IC50) is ≤ 5 µM.
For the compound `Cc1ccc(C(=O)NC2CC2)cc1-c1ccc2c(N3CCC[C@H]3CO)nncc2c1` [Example 151, N-cyclopropyl-3-{1-[(2S)-2-(hydroxymethyl)pyrrolidin-1-yl]phthalazin-6-yl}-4-methylbenzamide], the IC50 was ≤ 5 µM.
Take `Cc1ccccc1-c1ccc2c(N3CCOCC3c3ccc(Cl)cc3)nncc2c1` (stereo not drawn) [Example 17, 1-(3-(4-chlorophenyl)morpholino)-6-o-tolylphthalazine]: the IC50 is ≤ 5 µM.
As to `Cc1ccc(C(=O)NC2CC2)cc1-c1ccc2c(N3CCNC(=O)C3)nncc2c1` [Example 163, N-cyclopropyl-4-methyl-3-[1-(3-oxopiperazin-1-yl)phthalazin-6-yl]benzamide], the IC50 is ≤ 5 µM.
Turning to `Cc1ccc(C(=O)Nc2ccon2)cc1-c1ccc2c(N3CCOCC3)nncc2c1` [Example 108, N-(Isoxazol-3-yl)-4-methyl-3-(1-morpholinophthalazin-6-yl)benzamide], the IC50 is ≤ 5 µM.
In the case of `Cc1ccc(C(N)=O)cc1-c1ccc2c(-c3ccc(CN4CCOCC4)cc3)nncc2c1` [Example 203, 4-methyl-3-{1-[4-(morpholin-4-ylmethyl)phenyl]phthalazin-6-yl}benzamide], the concentration for half-maximal inhibition (IC50) is ≤ 5 µM.
With `Cc1ccc(C(=O)NC2CC2)cc1-c1ccc2c(OC3CCCN(C)C3)nncc2c1` (stereo not drawn) [Example 317, N-cyclopropyl-4-methyl-3-{1-[(1-methylpiperidin-3-yl)oxy]phthalazin-6-yl}benzamide] the figure was ≤ 5 µM; with `Cc1cc(F)ccc1-c1nncc2cc(Oc3ccccc3)ccc12` [Example 347, 1-(4-fluoro-2-methylphenyl)-6-phenoxyphthalazine], ≤ 5 µM; with `CNc1noc2c(-c3ccc4c(NC(C)C)nncc4c3)c(C)ccc12` [Example 372, N-isopropyl-6-[6-methyl-3-(methylamino)-1,2-benzisoxazol-7-yl]phthalazin-1-amine], ≤ 5 µM.
For the compound `Cc1ccc(C(=O)NC2CC2)cc1-c1ccc2c(N3C[C@@H]4C[C@H]3CN4)nncc2c1` [Example 125, N-cyclopropyl-3-{1-[(1S,4S)-2,5-diazabicyclo[2.2.1]hept-2-yl]phthalazin-6-yl}-4-methylbenzamide], the half-maximal inhibitory concentration (IC50) was ≤ 5 µM.
Regarding `CC[C@@H](C)Oc1nncc2cc(-c3cc(C(=O)NC4CC4)ccc3C)ccc12` [Example 328, N-cyclopropyl-4-methyl-3-(1-{[(1R)-1-methylpropyl]oxy}phthalazin-6-yl)benzamide], the IC50 was ≤ 5 µM.
Next, `Cc1ccccc1-c1nncc2cc(-c3c(C)ccc(C(=N)NC4CC4)c3O)ccc12` [Example 378, N-cyclopropyl-2-hydroxy-4-methyl-3-[1-(2-methylphenyl)phthalazin-6-yl]benzenecarboximidamide]: ≤ 5 µM; `CC[C@@H](C)Nc1nncc2cc(-c3c(C)ccc4c(NC)noc34)ccc12` [Example 366, 6-[6-methyl-3-(methylamino)-1,2-benzisoxazol-7-yl]-N-[(1R)-1-methylpropyl]phthalazin-1-amine]: ≤ 5 µM.
Next, `Cc1ccc(C(=O)NC2CC2)cc1-c1ccc2c(NC[C@@H]3CCCO3)nncc2c1` [Example 309, N-cyclopropyl-4-methyl-3-(1-{[(2S)-tetrahydrofuran-2-ylmethyl]amino}phthalazin-6-yl)benzamide]: ≤ 5 µM.
With `COc1ncccc1-c1ccc2c(-c3cccnc3OC)nncc2c1` [Example 375, 1,6-bis(2-methoxypyridin-3-yl)phthalazine], the IC50 was ≤ 5 µM.
As to `CC[C@H](C)Oc1nncc2cc(-c3cc(C(=O)NC4CC4)ccc3C)ccc12` [Example 302, N-cyclopropyl-4-methyl-3-(1-{[(1S)-1-methylpropyl]oxy}phthalazin-6-yl)benzamide], the IC50 is ≤ 5 µM.
For the compound `Cc1ccc(C(N)=O)cc1-c1ccc2c(-c3ccc(S(N)(=O)=O)cc3C)nncc2c1` [Example 236, 3-{1-[4-(aminosulfonyl)-2-methylphenyl]phthalazin-6-yl}-4-methylbenzamide], the IC50 is ≤ 5 µM.
With `CC(=O)N1CCN(c2nncc3cc(-c4cc(C(=O)NC5CC5)ccc4C)ccc23)[C@@H](C)C1` [Example 371, 3-{1-[(2S)-4-acetyl-2-methylpiperazin-1-yl]phthalazin-6-yl}-N-cyclopropyl-4-methylbenzamide], the IC50 was ≤ 5 µM.
Take `Cc1ccc(C(=O)NC2CC2)cc1-c1ccc2c(Cl)nncc2c1` [Example 164, 3-(1-chlorophthalazin-6-yl)-N-cyclopropyl-4-methylbenzamide]: the half-inhibitory concentration (IC50) was ≤ 5 µM.
Turning to `Cc1ccccc1-c1nncc2cc(Oc3ccccc3C(=O)NC3CC3)ccc12` [Example 343, N-cyclopropyl-2-{[1-(2-methylphenyl)phthalazin-6-yl]oxy}benzamide], the IC50 is ≤ 5 µM.
As for `Cc1ccc(C(N)=O)cc1-c1ccc2c(N3C[C@@H]4C[C@H]3CO4)nncc2c1` [Example 115, 4-methyl-3-{1-[(1S,4S)-2-oxa-5-azabicyclo[2.2.1]hept-5-yl]phthalazin-6-yl}benzamide], the IC50 was ≤ 5 µM.
On to `Cc1ccc(C(=O)NC2CC2)cc1-c1ccc2c(N3CCC[C@@H]4CCCC[C@@H]43)nncc2c1` [Example 154, 3-{1-[(4aS,8aS)-octahydroquinolin-1(2H)-yl]phthalazin-6-yl}-N-cyclopropyl-4-methylbenzamide], for which the half-maximal inhibitory concentration (IC50) was ≤ 5 µM.
Consider `CNc1noc2c(-c3ccc4c(N5CCOC[C@@H]5C)nncc4c3)c(Cl)ccc12` [Example 15, 6-chloro-N-methyl-7-(1-((S)-3-methylmorpholino)phthalazin-6-yl)benzo[d]isoxazol-3-amine], for which the 50% inhibitory concentration (IC50) is ≤ 5 µM.
Turning to `Cc1ccc(C(=O)NC2CC2)cc1-c1ccc2c(-c3ccc(F)cc3)nncc2c1` [Example 239, N-cyclopropyl-3-[1-(4-fluorophenyl)phthalazin-6-yl]-4-methylbenzamide], the IC50 was ≤ 5 µM.
